Measured values published in US20050203135A1, “Antagonists for treatment of CD/11CD18 adhesion receptor mediated disorders” (Genentech, Inc., priority 1998, published 2005).

How the values were obtained:
human LFA-1:ICAM-1 = biological target: T1, human LFA-1:ICAM-1 (Homo sapiens, UniProt P05107+P20701); assay: human LFA-1:ICAM-1 receptor binding assay (format not stated)
T1 construct: containing the full-length cDNAs for the aL (CD11a) and b2 (CD18) subunits; made in house

[1] = system: HuT 78 cell adhesion to 5dICAM-Ig; assay: Human T-cell adhesion assay (cell attachment assay); assay type: cell-based; conditions: HuT78
Description: The T-cell adhesion assay is performed using a human T-lymphoid cell line HuT 78. Goat anti-HuIgG(Fc) was diluted to 2 μg/ml in PBS and 96-well plates were coated with 50 μl/well @ 37° C. for 1 h. Plates were washed with PBS and blocked for 1 h @ room temperature with 1% BSA in PBS. 5 domain ICAM-Ig was diluted to 100 ng/ml in PBS and 50 μl/well was added to the plates O/N @ 4° C. HuT 78 cells were centrifuged at 100 g and the cell pellet was treated with 5 mM EDTA for 5′ at 37° C. in a 5% CO2 incubator. Cells were washed in 0.14M NaCl, 0.02M Hepes, 0.2% Glucose and 0.1 mM MnCl2 (assay buffer) and centrifuged. The cells were resuspended in assay buffer to 3.0×10^6 c/ml. Inhibitors were diluted in assay buffer to a 2× final concentration and pre-incubated with HuT 78 cells for 30′ at room temperature. 100 μl/well of cells and inhibitors were added to the plates and incubated at room temperature for 1 h. 100 μl/well PBS was added and the plates were sealed and centrifuged inverted at 100 g for 5′. Unattached cells were flicked out of the plate and excess PBS was blotted on a paper towel. […] The enzyme reaction was stopped with 90 μl/well 50 mM Glycine/5 mM EDTA and read on a platereader at […]. HUT 78 cell adhesion to 5dICAM-Ig is measured using the p-nitrophenyl n-acetyl-β-D-glucosaminide method of Landegren, U. (1984) J. Immunol. […]

T1 sequence (P20701 26-1170): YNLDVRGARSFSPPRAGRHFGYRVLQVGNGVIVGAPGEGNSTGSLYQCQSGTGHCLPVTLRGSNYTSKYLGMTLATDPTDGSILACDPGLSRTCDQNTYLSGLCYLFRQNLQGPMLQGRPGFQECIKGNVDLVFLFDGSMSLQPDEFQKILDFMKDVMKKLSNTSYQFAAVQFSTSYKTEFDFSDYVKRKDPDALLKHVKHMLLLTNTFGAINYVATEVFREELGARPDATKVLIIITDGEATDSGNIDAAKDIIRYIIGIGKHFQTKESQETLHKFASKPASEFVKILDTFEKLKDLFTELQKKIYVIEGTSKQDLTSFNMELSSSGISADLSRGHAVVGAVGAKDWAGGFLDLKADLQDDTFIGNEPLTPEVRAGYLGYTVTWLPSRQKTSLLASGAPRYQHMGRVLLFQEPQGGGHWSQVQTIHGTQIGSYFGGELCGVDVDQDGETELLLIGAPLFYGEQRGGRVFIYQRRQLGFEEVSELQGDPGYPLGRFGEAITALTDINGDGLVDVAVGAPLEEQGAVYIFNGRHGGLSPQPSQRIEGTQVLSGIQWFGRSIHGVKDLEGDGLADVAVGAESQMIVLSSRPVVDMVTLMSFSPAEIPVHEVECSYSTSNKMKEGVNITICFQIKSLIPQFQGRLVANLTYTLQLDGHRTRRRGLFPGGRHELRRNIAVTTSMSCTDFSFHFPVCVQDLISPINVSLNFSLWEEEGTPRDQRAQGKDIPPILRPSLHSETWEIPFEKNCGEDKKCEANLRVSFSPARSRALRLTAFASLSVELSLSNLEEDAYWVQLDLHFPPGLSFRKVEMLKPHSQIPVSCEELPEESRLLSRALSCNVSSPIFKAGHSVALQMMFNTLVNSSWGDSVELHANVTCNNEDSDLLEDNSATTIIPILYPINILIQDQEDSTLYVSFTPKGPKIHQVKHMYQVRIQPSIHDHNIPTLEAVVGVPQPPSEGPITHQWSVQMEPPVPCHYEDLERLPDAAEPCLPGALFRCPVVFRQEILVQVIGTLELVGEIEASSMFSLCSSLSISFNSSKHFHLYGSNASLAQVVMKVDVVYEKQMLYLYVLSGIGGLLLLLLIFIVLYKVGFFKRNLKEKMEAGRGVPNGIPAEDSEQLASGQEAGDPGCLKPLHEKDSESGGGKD
T1 sequence (P05107 23-769): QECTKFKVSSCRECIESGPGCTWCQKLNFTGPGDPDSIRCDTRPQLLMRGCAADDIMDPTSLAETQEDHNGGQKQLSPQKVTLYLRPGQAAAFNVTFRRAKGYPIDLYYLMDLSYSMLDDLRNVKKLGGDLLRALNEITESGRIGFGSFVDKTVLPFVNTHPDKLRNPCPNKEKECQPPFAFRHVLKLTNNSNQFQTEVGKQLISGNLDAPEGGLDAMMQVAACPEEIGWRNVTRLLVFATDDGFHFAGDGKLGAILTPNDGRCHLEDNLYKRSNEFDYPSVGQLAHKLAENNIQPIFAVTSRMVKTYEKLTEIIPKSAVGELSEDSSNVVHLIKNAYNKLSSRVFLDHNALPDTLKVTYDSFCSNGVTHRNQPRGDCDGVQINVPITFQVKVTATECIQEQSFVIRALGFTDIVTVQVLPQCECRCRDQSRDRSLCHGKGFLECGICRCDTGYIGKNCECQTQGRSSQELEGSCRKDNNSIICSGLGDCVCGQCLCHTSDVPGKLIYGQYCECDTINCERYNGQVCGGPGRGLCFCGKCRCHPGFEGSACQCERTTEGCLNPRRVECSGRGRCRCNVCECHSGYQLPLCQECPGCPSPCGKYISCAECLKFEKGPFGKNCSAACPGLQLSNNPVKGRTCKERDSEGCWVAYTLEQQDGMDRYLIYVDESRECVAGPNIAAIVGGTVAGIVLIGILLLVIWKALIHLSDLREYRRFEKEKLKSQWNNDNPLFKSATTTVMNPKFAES

## O=C(N[C@@H](Cc1c[nH]c2ccccc12)C(=O)O)c1ccccc1Br [2-Bromobenzoyltryptophan]
Human LFA-1:ICAM-1
  IC50: ~2 µM
[1]
  IC50: ~10 µM
